Data as given in patent US10966964B2, “Method for preparing pharmaceutical composition comprising pyrrolo-fused six-membered heterocyclic compound” (Jiangsu Hengrui Medicine Co., Ltd., priority 2016, dated 2021).

Assay: Water solubility and moisture stability of the active ingredient (statement)
Type: physicochemical
Conditions: compound of formula (I) or a pharmaceutically acceptable salt thereof
Text: Since the compound of formula (I) or a pharmaceutically acceptable salt thereof has poor water solubility, and is unstable in the presence of moisture, water cannot be used as a solvent for wet granulation. When the compound of formula (I) or a pharmaceutically acceptable salt thereof is formulated into a pharmaceutical composition by using a conventional preparation method, the resulting composition is difficult to dissolve rapidly and keep its quality stable. There is a need to find a suitable method to obtain a stable composition with a rapid dissolution.

CCN(CC)CCN1CCc2[nH]c(/C=C3\C(=O)Nc4ccc(F)cc43)c(C)c2C1=O.O=C(O)C[C@H](O)C(=O)O [compound of formula (I), 5-(2-diethylamino-ethyl)-2-(5-fluoro-2-oxo-1,2-dihydro-indol-3-ylidene-methyl)-3-methyl-1,5,6,7-tetrahydro-pyrrolo[3,2-c]pyridin-4-one]
stability in the presence of moisture (in words): unstable | water solubility (in words): poor
